The source of these data is PMC4139061, “Structural basis of nucleoside and nucleoside drug selectivity by concentrative nucleoside transporters” (eLife, 2014).

Type in all cases: cell-based
Assay [1] has as its target T1, hCNT1 (Homo sapiens, UniProt O00337).
T1 sequence (O00337 1-649): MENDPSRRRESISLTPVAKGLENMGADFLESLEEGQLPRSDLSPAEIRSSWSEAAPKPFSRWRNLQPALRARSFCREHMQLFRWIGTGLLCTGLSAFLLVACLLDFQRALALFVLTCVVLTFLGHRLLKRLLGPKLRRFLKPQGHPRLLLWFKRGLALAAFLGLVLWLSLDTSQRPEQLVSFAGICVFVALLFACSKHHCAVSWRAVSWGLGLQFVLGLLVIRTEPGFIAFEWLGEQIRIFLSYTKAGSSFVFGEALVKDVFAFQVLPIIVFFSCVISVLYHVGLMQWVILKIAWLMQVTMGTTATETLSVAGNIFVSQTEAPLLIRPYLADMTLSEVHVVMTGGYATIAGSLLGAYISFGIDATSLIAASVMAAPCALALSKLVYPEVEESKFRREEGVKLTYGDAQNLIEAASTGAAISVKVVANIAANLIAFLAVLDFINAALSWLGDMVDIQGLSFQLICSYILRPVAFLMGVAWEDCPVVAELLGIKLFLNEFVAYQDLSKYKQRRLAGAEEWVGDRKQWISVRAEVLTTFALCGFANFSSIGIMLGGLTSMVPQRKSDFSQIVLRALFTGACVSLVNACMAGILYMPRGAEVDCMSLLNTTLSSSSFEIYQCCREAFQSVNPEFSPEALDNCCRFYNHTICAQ
Kind of assay: two-electrode voltage-clamp of Na+ currents / total charge in Xenopus oocytes expressing hCNT1. From the text: (§1) To detect nucleoside transport by hCNTs, we turned to two-electrode voltage-clamp electrophysiological recording. Because hCNTs are Na^+-nucleoside symporters, one can measure the current generated by the Na^+ transport that is coupled with nucleoside transport. We injected Xenopus oocytes with mRNA coding for each of the hCNTs and measured inward Na^+ currents elicited by the addition of different nucleosides to the extracellular side.
(§2) The genes coding for the three hCNTs and vcCNT were cloned into a pGEM-HE vector. Plasmids were linearized using either SphI or NheI, and mRNA was transcribed using the mMESSAGE mMACHINE T7 Transcription Kit (Ambion, Grand Island, NY). Defolliculated Xenopus laevis oocytes were purchased from Ecocyte Bioscience (Austin, TX). Individual oocytes were injected with 40 ng of mRNA using a 10-μl microdispenser (Drummond Scientific, Broomall, PA) fitted with a tapered glass pipette tip and incubated at 17 °C for 4–5 days in ND96 buffer (96 mM NaCl, 2 mM KCl, 1 mM MgCl2, 1.8 mM CaCl2, and 5 mM HEPES pH 7.5) with 0.1% penicillin and streptomycin before recording.
The oocyte-recording chamber was gravity-perfused with ND96 buffer at a rate of 2 ml/min. Membrane currents were measured using an Oocyte Clamp (OC-725C; Warner Instruments, Hamden, CT). Individual oocytes were penetrated with two microelectrodes filled with 3 M KCl (0.5–1.0 MΩ). All electrophysiological experiments were conducted at room temperature. The OC-725C Oocyte Clamp was computer-interfaced via an Axon Digidata 1550 and controlled by Axoscope software (Molecular Devices, Sunnyvale, CA). The current signals were filtered at 20 Hz and sampled at intervals of 20 ms. The signals were filtered at 0.5 Hz by use of pCLAMP 10.4 software for data presentation. […] Cells were discarded if resting membrane potentials were unstable or more positive than −30 mV. Oocyte membrane potentials were clamped at −90 mV for holding potentials to measure transporter-generated currents. All data are shown as means ± SEM.
On the technique in general: Two-electrode voltage clamp is typically applied to oocytes expressing channels or transporters.

Assay [2] concerns the target hCNT3 (375L/446V) (Homo sapiens, UniProt Q9HAS3, L446V/V375L). Kind of assay: two-electrode voltage-clamp total charge in Xenopus oocytes expressing hCNT3 (375L/446V). The conditions noted are these: mean of Exp. 1-11. From the text: In the paradigm of the alternating-access mechanism of sodium-coupled symporters ([Krishnamurthy et al., 2009]), substrate release is achieved by the transition from the inward-facing occluded to the inward-facing open state (Figure 6C).
Figure 6. […] (A) Model of hCNT3 nucleo-pocket. […] (B) Model of hCNT1 nucleo-pocket. […] (C) Hypothetical alternating-access mechanism of vcCNT. A cartoon representation of the different conformational states along the transport cycle is depicted. The transport domain (including HP1, HP2, TM4b, and TM7b) and TM6 are shown as cylinders. […] The nucleo-pocket in the inward-occluded conformation (bottom right) is located between TM6 and TM4 and is marked with a green star. The inward-occluded conformation is derived from the crystal structures of vcCNT. All other conformations are purely hypothetical. The transition between inward- and outward-facing conformations has been proposed to be achieved by a rigid-body movement of the transport domain across TM6 ([Johnson et al., 2012]). Extracellular and intracellular gating likely involves slight rearrangements of HP2/TM4b and HP1/TM7b, respectively. […] See Figure 6—source data 1 for total charge source data. DOI: http://dx.doi.org/10.7554/eLife.03604.024 Figure 6—source data 1. Total charge data. Total charge transported (μC) was calculated as the area under the curve of the current trace after application of the indicated nucleoside to hCNT-expressing Xenopus oocytes. Each row represents a separate experiment done using a different oocyte. The ratios of the total charge transported for the nucleosides are shown in the last columns.
The genes coding for the three hCNTs and vcCNT were cloned into a pGEM-HE vector. Plasmids were linearized using either SphI or NheI, and mRNA was transcribed using the mMESSAGE mMACHINE T7 Transcription Kit (Ambion, Grand Island, NY). […]
The oocyte-recording chamber was gravity-perfused with ND96 buffer at a rate of 2 ml/min. Membrane currents were measured using an Oocyte Clamp (OC-725C; Warner Instruments, Hamden, CT). […]

The target of assay [3] is hCNT2 (Homo sapiens, UniProt O43868). Kind of assay: two-electrode voltage-clamp of Na+ currents in Xenopus oocytes expressing hCNT2. The following applies: data not shown.
From the text: as §1, §2
The oocyte-recording chamber was gravity-perfused with ND96 buffer at a rate of 2 ml/min. Membrane currents were measured using an Oocyte Clamp (OC-725C; Warner Instruments, Hamden, CT). Individual oocytes were penetrated with two microelectrodes filled with 3 M KCl (0.5–1.0 MΩ). […]

Chain of hCNT3 (375L/446V) (Q9HAS3 whole entry V375L/L446V, the tested form may be a part): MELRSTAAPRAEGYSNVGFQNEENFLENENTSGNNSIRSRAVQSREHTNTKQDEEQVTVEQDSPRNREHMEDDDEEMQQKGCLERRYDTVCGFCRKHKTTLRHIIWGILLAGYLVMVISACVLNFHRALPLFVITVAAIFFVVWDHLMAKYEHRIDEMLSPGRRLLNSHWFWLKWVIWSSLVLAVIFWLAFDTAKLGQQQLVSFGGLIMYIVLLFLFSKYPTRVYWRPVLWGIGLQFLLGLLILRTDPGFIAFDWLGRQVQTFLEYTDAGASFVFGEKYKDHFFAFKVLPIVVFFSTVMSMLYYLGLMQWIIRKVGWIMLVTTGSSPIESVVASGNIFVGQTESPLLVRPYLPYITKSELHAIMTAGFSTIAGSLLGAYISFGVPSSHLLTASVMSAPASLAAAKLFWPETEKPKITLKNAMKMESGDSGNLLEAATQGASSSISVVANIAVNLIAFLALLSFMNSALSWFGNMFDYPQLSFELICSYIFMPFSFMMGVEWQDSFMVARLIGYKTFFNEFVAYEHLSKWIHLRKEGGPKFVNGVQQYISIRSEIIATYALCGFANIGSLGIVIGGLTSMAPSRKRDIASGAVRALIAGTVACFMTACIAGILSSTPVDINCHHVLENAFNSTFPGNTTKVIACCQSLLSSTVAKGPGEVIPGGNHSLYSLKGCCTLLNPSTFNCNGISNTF
Chain of hCNT2 (O43868 whole entry): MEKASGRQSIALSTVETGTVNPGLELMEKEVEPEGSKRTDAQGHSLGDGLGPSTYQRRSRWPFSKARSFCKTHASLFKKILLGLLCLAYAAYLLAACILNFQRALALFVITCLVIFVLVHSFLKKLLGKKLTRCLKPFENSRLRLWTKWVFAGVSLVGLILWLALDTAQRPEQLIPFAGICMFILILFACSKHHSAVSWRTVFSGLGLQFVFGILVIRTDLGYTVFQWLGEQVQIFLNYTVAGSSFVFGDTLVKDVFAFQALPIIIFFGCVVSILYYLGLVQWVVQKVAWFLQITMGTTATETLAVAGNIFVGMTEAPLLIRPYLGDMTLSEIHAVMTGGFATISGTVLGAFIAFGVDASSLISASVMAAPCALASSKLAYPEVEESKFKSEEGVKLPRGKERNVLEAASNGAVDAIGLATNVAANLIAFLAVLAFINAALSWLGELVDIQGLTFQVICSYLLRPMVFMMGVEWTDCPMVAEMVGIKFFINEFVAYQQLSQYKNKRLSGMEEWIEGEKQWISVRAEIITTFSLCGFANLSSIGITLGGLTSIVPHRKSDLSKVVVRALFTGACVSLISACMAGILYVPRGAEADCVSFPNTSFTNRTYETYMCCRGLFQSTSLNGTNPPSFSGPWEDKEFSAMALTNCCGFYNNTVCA

As to `Cc1cc2cn([C@@H]3O[C@H](CO)[C@@H](O)C3(F)F)c(=O)nc2[nH]1` [pyrrolo-gemcitabine], the “Total charge transported, Mean” value was found to be 0.823 μC in assay [1] (200 μM nucleoside, hCNT1-expressing Xenopus oocytes, mean of Exp. 1-11) and 4.864 μC in assay [2] (400 μM nucleoside, hCNT3 (375L/446V)-expressing Xenopus oocytes). Further, the “total charge uptake higher than gemcitabine” value in assay [1] (fold, hCNT1 oocytes, 200 μM) is listed as “sevenfold”. The “Qpyr-gem/Qgem, Mean” value in assay [1] (ratio of total charge, 200 μM each, hCNT1, mean of Exp. 1-11) is listed as 6.829. In addition, the “Qgem/Qpyr-gem, Mean” value in assay [2] (ratio of total charge, 400 μM each, hCNT3 (375L/446V)) is reported as 1.287. In addition, the “transport by hCNT2” value in assay [3] is “transported neither compound”.
